“And” between values parts separate entries of the source, which are not always exact repeats. Identical values can stand only once. Toxic doses and inconclusive results are not listed. Rule as the data show it: active = T/C of 150% or more; inactive = T/C below 125%.
Tested on: L1210 leukemia ip in BDF1 mice, survival T/C
Experiment: NCI In Vivo Anticancer Drug Screen. Data for tumor model L1210 Leukemia (intraperitoneal) in B6D2F1 (BDF1) mice
Conditions: endpoint: mean survival time, higher = longer survival
Procedure, shortened: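 Survival endpoint. Drug-treated group vs vehicle group, expressed as T divided by C. Tumor passaged by transplantation.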

[1] = dose: 100.0 mg/kg/injection, schedule: Q01DX009 (ip), vehicle: Klucel (hydroxypropylcellulose) (HPC)
[2] = dose: 100.0 mg/kg/injection, schedule: Q04DX003 (ip), vehicle: Klucel (hydroxypropylcellulose) (HPC)
[3] = dose: 200.0 mg/kg/injection, schedule: Q01DX009 (ip), vehicle: Klucel (hydroxypropylcellulose) (HPC)
[4] = dose: 200.0 mg/kg/injection, schedule: Q04DX003 (ip), vehicle: Klucel (hydroxypropylcellulose) (HPC)
[5] = dose: 400.0 mg/kg/injection, schedule: Q01DX009 (ip), vehicle: Klucel (hydroxypropylcellulose) (HPC)
[6] = dose: 400.0 mg/kg/injection, schedule: Q04DX003 (ip), vehicle: Klucel (hydroxypropylcellulose) (HPC)
[7] = dose: 100.0 mg/kg/injection, schedule: Q04DX003 (ip), vehicle: saline with Tween-80
[8] = dose: 200.0 mg/kg/injection, schedule: Q04DX003 (ip), vehicle: saline with Tween-80
[9] = dose: 50.0 mg/kg/injection, schedule: Q01DX009 (ip), vehicle: saline with Tween-80
[10] = dose: 100.0 mg/kg/injection, schedule: Q01DX009 (ip), vehicle: saline with Tween-80
[11] = dose: 200.0 mg/kg/injection, schedule: Q01DX009 (ip), vehicle: saline with Tween-80
[12] = dose: 100.0 mg/kg/injection, schedule: Q01DX001 (ip), vehicle: saline
[13] = dose: 200.0 mg/kg/injection, schedule: Q01DX001 (ip), vehicle: saline

Measured: T/C

O=C(OCc1ccccc1)c1cc(OCc2ccccc2)ccc1OCc1ccccc1
inactive: [1] 89 % of control | [2] 93 % of control | [3] 101 % of control | [4] 95 % of control | [5] 107 % of control | [6] 98 % of control

CCC(CCN(CC=C(C)C)CC=C(C)C)(C(N)=O)c1cccc2ccccc12 (centres undefined)
inactive: dose: 6.25 mg/kg/injection, schedule: Q01DX009 (ip), vehicle: Klucel (hydroxypropylcellulose) (HPC) 96 % of control | dose: 6.25 mg/kg/injection, schedule: Q04DX003 (ip), vehicle: Klucel (hydroxypropylcellulose) (HPC) 107 % of control | dose: 12.5 mg/kg/injection, schedule: Q01DX009 (ip), vehicle: Klucel (hydroxypropylcellulose) (HPC) 101 % of control | dose: 12.5 mg/kg/injection, schedule: Q04DX003 (ip), vehicle: Klucel (hydroxypropylcellulose) (HPC) 100 % of control | dose: 25.0 mg/kg/injection, schedule: Q01DX009 (ip), vehicle: Klucel (hydroxypropylcellulose) (HPC) 96 % of control | dose: 25.0 mg/kg/injection, schedule: Q04DX003 (ip), vehicle: Klucel (hydroxypropylcellulose) (HPC) 102 % of control

CC(=O)N(C)c1ccc(NC2=NCCO2)cc1
inactive: [7] 98 % of control | [8] 101 % of control | dose: 400.0 mg/kg/injection, schedule: Q04DX003 (ip), vehicle: saline with Tween-80 98 % of control

CC(C)(c1ccccc1)C(C(=O)O)C(=O)O
inactive: dose: 75.0 mg/kg/injection, schedule: Q01DX001 (ip), vehicle: saline 98 % of control | dose: 150.0 mg/kg/injection, schedule: Q01DX001 (ip), vehicle: saline 98 % of control | dose: 300.0 mg/kg/injection, schedule: Q01DX001 (ip), vehicle: saline 102 % of control

COc1ccc(C)cc1NC(=O)OCCOc1ccc(Cl)c(C)c1
inactive: [9] 93 % of control | [10] 90 % of control | [11] 93 % of control

CC(C)(C)NC(=O)CCC1C2C=CC(C2)C1C(=O)NC(C)(C)C (centres undefined)
inactive: dose: 100.0 mg/kg/injection, schedule: Q01DX001 (ip), vehicle: Klucel (hydroxypropylcellulose) (HPC) 97 % of control | [2] 101 % of control | dose: 200.0 mg/kg/injection, schedule: Q01DX001 (ip), vehicle: Klucel (hydroxypropylcellulose) (HPC) 92 % of control | [4] 97 % of control | dose: 400.0 mg/kg/injection, schedule: Q01DX001 (ip), vehicle: Klucel (hydroxypropylcellulose) (HPC) 98 % of control | [6] 107 % of control

CC1CCCC2OC(=O)C(C(N)=O)C12 (centres undefined)
inactive: [12] 95 % of control | [13] 100 % of control | dose: 400.0 mg/kg/injection, schedule: Q01DX001 (ip), vehicle: saline 97 % of control

ClC(Cl)(Cl)c1cccc(-c2nc(C(Cl)(Cl)Cl)nc(C(Cl)(Cl)Cl)n2)c1
inactive: dose: 100.0 mg/kg/injection, schedule: Q04DX002 (ip), vehicle: Klucel (hydroxypropylcellulose) (HPC) 106 % of control | dose: 200.0 mg/kg/injection, schedule: Q04DX002 (ip), vehicle: Klucel (hydroxypropylcellulose) (HPC) 90 % of control | dose: 400.0 mg/kg/injection, schedule: Q04DX002 (ip), vehicle: Klucel (hydroxypropylcellulose) (HPC) 100 % of control

Nc1ccccc1Sc1ccc2c3c(cccc13)C(=O)N(c1ccccc1)C2=O
inactive: dose: 100.0 mg/kg/injection, schedule: Q04DX002 (ip), vehicle: saline with Tween-80 87 % of control | dose: 400.0 mg/kg/injection, schedule: Q04DX002 (ip), vehicle: saline with Tween-80 94 % of control

NC(=O)NN=C1CSSC1
inactive: dose: 1.56 mg/kg/injection, schedule: Q01DX009 (ip), vehicle: saline with Tween-80 101 % of control | dose: 3.12 mg/kg/injection, schedule: Q01DX009 (ip), vehicle: saline with Tween-80 99 % of control | dose: 6.25 mg/kg/injection, schedule: Q01DX009 (ip), vehicle: saline with Tween-80 94 % of control | dose: 6.25 mg/kg/injection, schedule: Q04DX003 (ip), vehicle: saline with Tween-80 97 % of control | dose: 12.5 mg/kg/injection, schedule: Q01DX009 (ip), vehicle: saline with Tween-80 98 % of control and 106 % of control | dose: 12.5 mg/kg/injection, schedule: Q04DX003 (ip), vehicle: saline with Tween-80 97 % of control

CC(C)=C1C2CCC1NN2
inactive: dose: 50.0 mg/kg/injection, schedule: Q01DX001 (ip), vehicle: Klucel (hydroxypropylcellulose) (HPC) 108 % of control

O=C(O)/C=C/C(=O)Nc1ccc(I)cc1
inactive: dose: 50.0 mg/kg/injection, schedule: Q04DX003 (ip), vehicle: saline with Tween-80 104 % of control | [7] 104 % of control | [8] 104 % of control

O=[As](O)(CC(O)COc1ccccc1)c1ccccc1 (centres undefined)
inactive: dose: 6.25 mg/kg/injection, schedule: Q01DX001 (ip), vehicle: saline with Tween-80 98 % of control | dose: 12.5 mg/kg/injection, schedule: Q01DX001 (ip), vehicle: saline with Tween-80 98 % of control

COCCCCO
inactive: [9] 97 % of control | [10] 97 % of control | [11] 90 % of control

CCC(C)C(C)CO (centres undefined)
inactive: dose: 50.0 mg/kg/injection, schedule: Q01DX001 (ip), vehicle: saline 108 % of control | [12] 100 % of control | [13] 88 % of control

Cc1c2ccnc(-c3ccccc3)c2cc2c1[nH]c1ccccc12
inactive: dose: 31.3 mg/kg/injection, schedule: Q01DX Z (ip), vehicle: other 98 % of control | dose: 62.5 mg/kg/injection, schedule: Q01DX Z (ip), vehicle: other 101 % of control | dose: 100.0 mg/kg/injection, schedule: Q01DX001 (ip), vehicle: carboxymethylcellulose (CMC) 108 % of control | dose: 125.0 mg/kg/injection, schedule: Q01DX015 (oral), vehicle: carboxymethylcellulose (CMC) 102 % of control | dose: 125.0 mg/kg/injection, schedule: Q01DX Z (ip), vehicle: other 101 % of control | dose: 200.0 mg/kg/injection, schedule: Q01DX001 (ip), vehicle: carboxymethylcellulose (CMC) 103 % of control | dose: 250.0 mg/kg/injection, schedule: Q01DX015 (oral), vehicle: carboxymethylcellulose (CMC) 93 % of control | dose: 250.0 mg/kg/injection, schedule: Q01DX Z (ip), vehicle: other 91 % of control | dose: 400.0 mg/kg/injection, schedule: Q01DX001 (ip), vehicle: carboxymethylcellulose (CMC) 97 % of control | dose: 500.0 mg/kg/injection, schedule: Q01DX015 (oral), vehicle: carboxymethylcellulose (CMC) 93 % of control

CC1OC(=O)C(C(C)C)NC(=O)C(C(C)C)OC(=O)C(C(C)C)NC(=O)C(C)OC(=O)C(C(C)C)NC(=O)C(C(C)C)OC(=O)C(C(C)C)NC(=O)C(C)OC(=O)C(C(C)C)NC(=O)C(C(C)C)OC(=O)C(C(C)C)NC1=O (centres undefined)
inactive: dose: 0.13 mg/kg/injection, schedule: Q01DX001 (ip), vehicle: saline 103 % of control | dose: 0.25 mg/kg/injection, schedule: Q01DX001 (ip), vehicle: saline 101 % of control | dose: 0.5 mg/kg/injection, schedule: Q01DX001 (ip), vehicle: saline 100 % of control | dose: 1.0 mg/kg/injection, schedule: Q01DX001 (ip), vehicle: saline 98 % of control | dose: 1.25 mg/kg/injection, schedule: Q01DX009 (ip), vehicle: saline with Tween-80 113 % of control | dose: 2.5 mg/kg/injection, schedule: Q01DX009 (ip), vehicle: saline with Tween-80 121 % of control | dose: 5.0 mg/kg/injection, schedule: Q01DX009 (ip), vehicle: saline with Tween-80 113 % of control | dose: 10.0 mg/kg/injection, schedule: Q01DX009 (ip), vehicle: saline with Tween-80 90 % of control

O=C1C2C3CCC(O3)C2C(=O)N1Cc1ccccc1CN1C(=O)C2C3CCC(O3)C2C1=O (centres undefined)
inactive: [1] 91 % of control | [3] 91 % of control | [5] 88 % of control

— PubChem BioAssay AID248 (DTP/NCI, 2004)
